Measurements reported in patent US20260098017A1, “NOVEL AROMATIC RING DERIVATIVE CONTAINING AMIDE SUBSTITUTION AND USE THEREOF” (TIANJIN PHARMACEUTICAL BIOTECHNOLOGY CO., LTD., priority 2022, published 2026).

Legend:
[1] = target: Ba/F3 cell line expressing TYK2 (Homo sapiens, UniProt P29597, cells depend on it, form not given); assay: In vitro cellular inhibition assay (Ba/F3 cell proliferation, CellTiter-Glo); format: cell-based; conditions: read-out: IC50 (the source's name)
Method: The inhibitory effect of the compounds of formula (I) according to the present invention on the TYK2 signaling pathway in cells was assessed using the following method:
Instrumentation: SpectraMax Paradigm reader.
Method: in this experiment, a Ba/F3 cell line expressing TYK2 was employed to assess the effect of the compounds on cell proliferation inhibition by measuring their effects on cell activity in vitro.
Procedure: a CellTiter-Glo buffer was thawed and placed aside till room temperature. A CellTiter-Glo substrate was placed aside till room temperature and dissolved with the buffer to prepare a CellTiter-Glo working solution. To a 96-well flat bottom transparent drug plate, 98 μL of cell culture medium and 2 μL of gradient diluted compound solution were added. The drug plate was placed aside for 10 min, and then 50 μL of the CellTiter-Glo working solution was added. The drug plate was subsequently shaken on an orbital shaker for 2 min and placed aside at room temperature for an additional 10 min. Finally, the luminescence signal was measured on the SpectraMax Paradigm reader.
Data Analysis: the cell proliferation inhibition rate data were processed using the following formula:
Inhibition Rate (Inh %)=100−(RLUDrug−RLUMin)/(RLUMax−RLUMin)×100%.
The inhibition rates of compounds with different concentrations were calculated in EXCEL, and then GraphPad Prism software was employed to plot inhibition rate curve and calculate relevant parameters, including maximum and minimum cell inhibition rates, IC50 values.

hERG channel = target: T1, hERG channel (Homo sapiens, UniProt Q12809); assay: hERG potassium channel inhibition assay (manual patch clamp); format: cell-based; conditions: HEK-293 cell line stably expressing hERG channel, at the tested concentrations
T1 construct: expressed in transfected cells; host or cells: HEK-293
T1 sequence (Q12809 whole entry): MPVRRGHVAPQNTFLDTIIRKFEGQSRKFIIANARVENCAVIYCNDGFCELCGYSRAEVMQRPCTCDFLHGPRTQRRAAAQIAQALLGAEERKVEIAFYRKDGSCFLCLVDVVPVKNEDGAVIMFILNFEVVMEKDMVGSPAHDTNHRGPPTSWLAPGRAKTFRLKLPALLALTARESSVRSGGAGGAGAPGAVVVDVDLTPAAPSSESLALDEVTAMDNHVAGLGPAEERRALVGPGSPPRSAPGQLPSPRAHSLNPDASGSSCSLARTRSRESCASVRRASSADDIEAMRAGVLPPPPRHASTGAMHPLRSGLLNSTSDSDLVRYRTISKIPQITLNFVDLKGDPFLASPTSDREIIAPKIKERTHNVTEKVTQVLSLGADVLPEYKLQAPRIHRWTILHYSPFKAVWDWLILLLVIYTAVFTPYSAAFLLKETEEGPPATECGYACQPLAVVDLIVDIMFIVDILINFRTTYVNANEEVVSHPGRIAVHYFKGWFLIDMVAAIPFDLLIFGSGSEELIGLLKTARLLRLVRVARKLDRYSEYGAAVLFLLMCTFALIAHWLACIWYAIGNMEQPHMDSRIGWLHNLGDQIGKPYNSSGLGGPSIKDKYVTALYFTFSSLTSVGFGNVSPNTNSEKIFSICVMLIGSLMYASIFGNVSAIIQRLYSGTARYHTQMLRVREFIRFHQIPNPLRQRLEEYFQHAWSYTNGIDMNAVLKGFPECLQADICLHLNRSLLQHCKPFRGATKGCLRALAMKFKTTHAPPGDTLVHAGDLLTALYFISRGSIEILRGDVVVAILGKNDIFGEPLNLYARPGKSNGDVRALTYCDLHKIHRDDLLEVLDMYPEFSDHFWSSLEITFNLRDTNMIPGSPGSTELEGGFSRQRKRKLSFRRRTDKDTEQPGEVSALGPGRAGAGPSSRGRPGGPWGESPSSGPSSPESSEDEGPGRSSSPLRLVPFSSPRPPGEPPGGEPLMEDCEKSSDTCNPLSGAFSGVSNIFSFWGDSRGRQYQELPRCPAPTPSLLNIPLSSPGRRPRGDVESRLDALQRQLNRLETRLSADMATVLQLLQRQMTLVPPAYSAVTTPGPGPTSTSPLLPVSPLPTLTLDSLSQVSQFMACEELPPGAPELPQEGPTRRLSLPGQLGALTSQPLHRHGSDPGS
Method: Instrumentation: HEKA EPC 10 patch clamp amplifier.
Method: in this experiment, the blocking effect of the compounds on the current of the HEK-293 cell line stably expressing hERG channel was measured using the manual patch clamp technique, and the risk of the compounds on the inhibition of cardiac hERG potassium channel was assessed by fitting the concentration effect relationship.
Procedure: in the patch clamp operation, firstly, a capillary glass tube was pulled into a recording electrode using a microelectrode puller, then an electrode filled with intracellular solution was mounted into a microelectrode holder. A microelectrode manipulator was operated under an inverted microscope to immerse the electrode into an extracellular solution and the electrode resistance (Rpip) was recorded. Then, the electrode was slowly brought into contact with the cell surface, and a negative pressure was applied for suction to form a GΩ seal. At this point, a fast capacitance compensation was performed, and a negative pressure was continuously applied to suck and break the cell membrane to form a whole cell recording mode. Finally, a slow capacitance compensation was performed and experimental parameters including series resistance (Rs) and the like were recorded. No leakage compensation was performed. When the hERG current recorded by the whole cell was stable, the administration of drugs commenced, and each drug concentration acted for about 5 min (or until the current stabilization) before detecting the next concentration. A cover glass covered with cells was placed in a recording bath under an inverted microscope, the blank control extracellular solution and the working solution of the compounds to be tested sequentially flowed through the recording bath from low concentration to high concentration by using gravity perfusion to act on the cells, and solution exchange was performed using a peristaltic pump during recording. The current measured by each cell in the extracellular solution without the compound served as its own control group. Each concentration was independently assessed twice. All electrophysiological tests were performed at room temperature.
Data Analysis: firstly, the tail current (Peak tail currentcompound) after the action of each drug concentration and the blank control tail current (Peak tail currentcontrol) were normalized, then the inhibition rate
corresponding to each drug concentration was calculated, and the mean (Mean), standard deviation (SD) and standard error (SE) of the inhibition rate corresponding to each concentration were calculated, with data expressed as Mean±SE. The calculation of IC50 value and the fitting of dose-response curve for the compound were performed using GraphPad Prism software.

TYK2 JH2 pseudokinase = TYK2 JH2 pseudokinase (Homo sapiens, UniProt P29597); assay: TYK2 JH2 enzyme binding assay in vitro (TR-FRET)
Chain of TYK2 JH2 pseudokinase (P29597 589-875 limits assumed): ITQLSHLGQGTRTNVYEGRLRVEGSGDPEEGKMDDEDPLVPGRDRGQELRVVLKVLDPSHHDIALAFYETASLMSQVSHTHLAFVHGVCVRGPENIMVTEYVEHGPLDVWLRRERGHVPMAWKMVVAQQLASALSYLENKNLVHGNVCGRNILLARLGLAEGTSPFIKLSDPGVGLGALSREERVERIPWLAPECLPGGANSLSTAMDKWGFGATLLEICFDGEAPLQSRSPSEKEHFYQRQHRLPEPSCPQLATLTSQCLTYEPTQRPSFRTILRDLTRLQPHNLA
Method: Instrumentation: Envision microplate reader (PerkinElmer), ECHO550 (LABCYTE).
Method: the inhibitory effects of compounds on TYK2 JH2 pseudokinase was tested using time-resolved fluorescence resonance energy transfer (TR-FRET) method.
Procedure: compounds were prepared into 10 mM stock solutions using DMSO, which were further diluted into compound dilutions (200×) with different concentration gradients in DMSO, and the compound dilutions (200×) were transferred to a 384-well assay plate using an Echo instrument. […] TYK2 JH2 pseudokinase, Tb antibody, and Tracer working solutions were prepared using the dilution buffer, respectively. 5 uL of TYK2 JH2 pseudokinase working solution (final concentration 0.5 nM) was added to a 384-well assay plate, and centrifuged at 1000 rpm for 30 s. 5 uL of Tb antibody (final concentration 1×) was added to the 384-well assay plate, and centrifuged at 1000 rpm for 30 s. 5 uL of Tracer (final concentration 0.5 nM) was added to the 384-well assay plate, and centrifuged at 1000 rpm for 30 s. Incubation was performed at room temperature for 60 min, and then at 4° C. overnight.
Data Analysis: XLfit, a software developed by IDBS and integrated into the Microsoft Excel environment, was used to process and analyze the test data.

JAK1 JH2 pseudokinase = JAK1 JH2 pseudokinase (Homo sapiens, UniProt P23458); assay: JAK1 JH2 enzyme binding assay in vitro (TR-FRET); conditions: read-out: JAK 1 JH2 IC50
Chain of JAK1 JH2 pseudokinase (P23458 583-855 limits assumed): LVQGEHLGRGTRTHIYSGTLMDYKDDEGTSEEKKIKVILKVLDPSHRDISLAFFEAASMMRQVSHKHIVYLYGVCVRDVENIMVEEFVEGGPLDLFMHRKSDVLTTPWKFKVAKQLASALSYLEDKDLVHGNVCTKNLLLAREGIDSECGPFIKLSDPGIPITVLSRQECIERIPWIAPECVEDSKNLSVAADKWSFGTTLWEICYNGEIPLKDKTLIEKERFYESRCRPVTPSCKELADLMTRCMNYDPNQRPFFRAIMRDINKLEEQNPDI
Method: Instrumentation: Envision microplate reader (PerkinElmer), Echo (LABCYTE)
Method: in this experiment, the inhibitory effects of compounds on JAK1 JH2 pseudokinase was tested using time-resolved fluorescence resonance energy transfer (TR-FRET) method.
Procedure: compounds were prepared into 10 mM stock solutions using DMSO, which were further diluted into compound dilutions with different concentration gradients in DMSO, and the compound dilutions with 200× final concentration were transferred to a 384-well assay plate using an Echo instrument. The preparation of the following 1× assay working solution: HEPES pH7.5 at a final concentration of 20 mM, MgCl2 at a final concentration of 10 mM, Brij-35 at a final concentration of 0.015%, DTT at a final concentration of 2 mM, BSA at a final concentration of 50 ug/mL. JAK1 JH2 pseudokinase with 3× final concentration, Tb antibody and Tracer were prepared using their respective 1× working solution. 5 uL of JAK1 JH2 pseudokinase was added to a 384-well assay plate, and centrifuged at 1000 rpm for 30 s. 5 uL of Tb antibody was added to the 384-well assay plate, and centrifuged at 1000 rpm for 30 s. 5 uL of Tracer was added to the 384-well assay plate, and centrifuged at 1000 rpm for 30 s. Incubation was performed at room temperature for 60 min, and then at 4° C. overnight. Finally, the 495 nm/520 nm fluorescence signal ratio was measured using the Envision microplate reader (PerkinElmer).
Data Analysis: XLfit, a software developed by IDBS and integrated into the Microsoft Excel environment, was used to process and analyze the test data. […] Thereafter, the concentration and corresponding inhibition rate data were imported into the XLfit software, and the Dose Response One Site 205 model within the software was employed to fit the inhibition rate-concentration curve by four-parameter method, and the IC50 value of the compound was calculated.

JAK1 JH1 kinase = JAK1 JH1 kinase (Homo sapiens, UniProt P23458); assay: JAK1 JH1 enzyme assay in vitro (TR-FRET); format: biochemical; conditions: read-out: JAK 1 JH1 IC50
Chain of JAK1 JH1 kinase (P23458 875-1153 limits assumed): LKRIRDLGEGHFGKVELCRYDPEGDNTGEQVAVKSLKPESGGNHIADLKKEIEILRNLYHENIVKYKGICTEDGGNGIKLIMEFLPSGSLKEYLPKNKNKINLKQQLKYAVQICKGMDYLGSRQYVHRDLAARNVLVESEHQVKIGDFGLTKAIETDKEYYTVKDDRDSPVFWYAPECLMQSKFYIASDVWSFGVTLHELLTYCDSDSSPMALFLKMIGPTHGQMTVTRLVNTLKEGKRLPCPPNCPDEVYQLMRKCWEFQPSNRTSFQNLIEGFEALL

JAK2 JH1 kinase = JAK2 JH1 kinase (Homo sapiens, UniProt O60674); assay: JAK2 JH1 enzyme assay in vitro (TR-FRET); format: biochemical; conditions: read-out: JAK 2 JH1 IC50
Chain of JAK2 JH1 kinase (O60674 849-1124 limits assumed): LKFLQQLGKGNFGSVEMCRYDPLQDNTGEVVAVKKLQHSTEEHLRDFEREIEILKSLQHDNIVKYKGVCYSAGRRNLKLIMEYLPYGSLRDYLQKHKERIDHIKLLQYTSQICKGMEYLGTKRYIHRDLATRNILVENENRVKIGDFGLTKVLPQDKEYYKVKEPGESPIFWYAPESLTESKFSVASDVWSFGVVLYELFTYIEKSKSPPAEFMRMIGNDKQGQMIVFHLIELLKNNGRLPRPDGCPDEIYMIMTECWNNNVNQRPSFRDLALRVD

JAK3 JH1 kinase = JAK3 JH1 kinase (Homo sapiens, UniProt P52333); assay: JAK3 JH1 enzyme assay in vitro (TR-FRET); format: biochemical; conditions: TR-FRET; read-out: JAK 3 JH1 IC50
Chain of JAK3 JH1 kinase (P52333 822-1111 limits assumed): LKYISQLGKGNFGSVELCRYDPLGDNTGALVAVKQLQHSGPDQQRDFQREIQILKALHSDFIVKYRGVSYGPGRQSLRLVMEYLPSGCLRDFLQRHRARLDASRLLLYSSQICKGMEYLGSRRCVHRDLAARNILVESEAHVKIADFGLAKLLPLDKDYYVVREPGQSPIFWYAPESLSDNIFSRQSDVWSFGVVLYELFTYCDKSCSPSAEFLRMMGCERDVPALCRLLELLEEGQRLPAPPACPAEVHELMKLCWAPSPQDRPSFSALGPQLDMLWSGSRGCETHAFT

TYK2 JH1 kinase = target: T2, TYK2 JH1 kinase (Homo sapiens, UniProt P29597); assay: TYK2 JH1 enzyme assay in vitro (TR-FRET); format: biochemical
T2 sequence (P29597 897-1176 limits assumed): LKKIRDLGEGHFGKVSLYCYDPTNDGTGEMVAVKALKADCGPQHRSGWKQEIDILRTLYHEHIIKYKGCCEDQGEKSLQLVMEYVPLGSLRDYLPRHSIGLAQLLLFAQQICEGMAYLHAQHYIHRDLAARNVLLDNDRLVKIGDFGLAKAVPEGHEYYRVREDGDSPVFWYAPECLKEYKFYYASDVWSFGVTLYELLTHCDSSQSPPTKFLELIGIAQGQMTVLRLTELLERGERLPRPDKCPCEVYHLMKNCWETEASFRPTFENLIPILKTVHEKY

[2] = system: imiquimod-induced mouse psoriasis-like model; assay: Imiquimod-induced mouse psoriasis-like model (PASI score); format: in vivo; conditions: oral gavage, 10 mg/kg, 25 mg/kg, 50 mg/kg, bid, compared with the model group

Structure (SMILES) | GI50 [1] | hERG inhibition (hERG channel) | IC50 (TYK2 JH2 pseudokinase) | IC50 (JAK1 JH2 pseudokinase) | IC50 (JAK1 JH1 kinase) | IC50 (JAK2 JH1 kinase) | IC50 (JAK3 JH1 kinase) | IC50 (TYK2 JH1 kinase) | Improvement of psoriasis symptoms by oral administration [2]
[2H]C([2H])([2H])NC(=O)c1nnc(NC(=O)C2CC2)cc1Nc1cccc(C(=O)Nc2ccc(C)cc2)c1OC [Example 2] | 1 to 5 nM | no significant inhibition | 0.311 nM | 6.56 nM | > 10000 nM | > 10000 nM | > 10000 nM | > 10000 nM | effectively improve psoriasis symptoms
[2H]C([2H])([2H])NC(=O)c1nnc(NC(=O)C2CC2)cc1Nc1cccc(C(=O)Nc2ccc(C)c(C)c2)c1OC [Example 4] | 1 to 5 nM | no significant inhibition | 0.293 nM | 5.33 nM | > 10000 nM | > 10000 nM | > 10000 nM | > 10000 nM | effectively improve psoriasis symptoms
[2H]C([2H])([2H])NC(=O)c1nnc(NC(=O)C2CC2)cc1Nc1cccc(C(=O)Nc2ccc(F)cc2)c1OC [Example 5] | 1 to 5 nM | no significant inhibition | 0.281 nM | 6.93 nM | > 10000 nM | > 10000 nM | > 10000 nM | > 10000 nM | effectively improve psoriasis symptoms
[2H]C([2H])([2H])NC(=O)c1nnc(NC(=O)C2CC2)cc1Nc1cccc(C(=O)Nc2cnn(C)c2)c1OC [Example 34] | 1 to 5 nM | no significant inhibition | 0.341 nM | 4.16 nM | > 10000 nM | > 10000 nM | > 10000 nM | > 10000 nM | effectively improve psoriasis symptoms
[2H]C([2H])([2H])NC(=O)c1nnc(NC(=O)C2CC2)cc1Nc1cccc(C(=O)Nc2cncc(C)c2)c1OC [Example 38] | 1 to 5 nM | no significant inhibition | 0.322 nM | 2.35 nM | > 10000 nM | > 10000 nM | > 10000 nM | > 10000 nM | effectively improve psoriasis symptoms
[2H]C([2H])([2H])NC(=O)c1cnc(NC(=O)C2CC2)cc1Nc1cccc(C(=O)Nc2ccc(C)cc2)c1OC [Example 54] | 1 to 5 nM | no significant inhibition | 0.302 nM | 4.56 nM | > 10000 nM | > 10000 nM | > 10000 nM | > 10000 nM | effectively improve psoriasis symptoms
[2H]C([2H])([2H])NC(=O)c1cnc(NC(=O)C2CC2)cc1Nc1cccc(C(=O)Nc2cccc(C)c2)c1OC [Example 55] | 1 to 5 nM | no significant inhibition | 0.298 nM | 3.3 nM | > 10000 nM | > 10000 nM | > 10000 nM | > 10000 nM | effectively improve psoriasis symptoms
[2H]C([2H])([2H])NC(=O)c1cnc(NC(=O)C2CC2)cc1Nc1cccc(C(=O)Nc2cnc(F)nc2)c1OC [Example 99] | 5 to 10 nM | – | – | – | – | – | – | – | –
[2H]C([2H])([2H])NC(=O)c1cnc(NC(=O)C2CC2)cc1Nc1cccc(C(=O)Nc2ccccn2)c1OC [Example 100] | 5 to 10 nM | – | – | – | – | – | – | – | –
[2H]C([2H])([2H])NC(=O)c1cnc(NC(=O)C2CC2)cc1Nc1cccc(C(=O)Nc2cccnc2)c1OC [Example 101] | 5 to 10 nM | – | – | – | – | – | – | – | –
[2H]C([2H])([2H])NC(=O)c1cnc(NC(=O)C2CC2)cc1Nc1cccc(C(=O)Nc2ccncc2)c1OC [Example 102] | 5 to 10 nM | – | – | – | – | – | – | – | –
[2H]C([2H])([2H])NC(=O)c1cnc(NC(=O)C2CC2)cc1Nc1cccc(C(=O)Nc2ncccn2)c1OC [Example 103] | 5 to 10 nM | – | – | – | – | – | – | – | –
[2H]C([2H])([2H])NC(=O)c1cnc(NC(=O)C2CC2)cc1Nc1cccc(C(=O)Nc2cncnc2)c1OC [Example 104] | 5 to 10 nM | – | – | – | – | – | – | – | –
[2H]C([2H])([2H])NC(=O)c1nnc(NC(=O)C2CC2)cc1Nc1cccc(C(=O)NC(C)(C)C)c1OC [Example 105] | 5 to 10 nM | – | – | – | – | – | – | – | –
[2H]C([2H])([2H])NC(=O)c1cnc(NC(=O)C2CC2)cc1Nc1cccc(C(=O)NC(C)(C)C)c1OC [Example 106] | 5 to 10 nM | – | – | – | – | – | – | – | –
